Reference: paper PMC12426922, “Fingerprinting the Intestinal Transport of Low-Molecular-Mass Advanced Glycation End-Products (AGEs) Using a Caco‑2 Transwell Model” (Journal of Agricultural and Food Chemistry, 2025)
Read-outs that look alike come from different tables or passages of the source. Marks after values point to notes of the source that are not given here.

Tests used:
Caco-2 cell monolayer = test: Accumulation of AGEs in the Caco-2 cell monolayer after transport experiment; format: in vitro ADME, Human; conditions: mixture, each AGE 100 μmol/L, 2 h
Experimental: After the transport experiment, the cell monolayer on the inset membrane was washed three times with HBSS and three times with PBS. […] The samples were subsequently centrifuged at 16 000g for 20 min at 4 °C, and the supernatant was collected for further analysis by LC-MS.
The analytical column was maintained at 40 °C throughout the quantification process. A multistep binary gradient system of water containing 0.1% (v/v) formic acid (solvent A) and acetonitrile containing 0.1% (v/v) formic acid (solvent B) was used. In the whole gradient program, the total proportion of solvents A and B is always equal to 100%. […] The initial flow rate was set to 0.30 mL/min. Subsequently, it was reduced to 0.25 mL/min at 0.3 min, which was kept until 10 min. Afterward, there was a gradual decrease, reaching 0.15 mL/min at 11 min, and this rate was maintained until 12 min. […] Between 1 and 11 min of gradient running, the line was set to MS, and for the other time periods, the line was set to waste. The retention time and mass spectrometry parameters of individual AGEs are listed in Table S1 and the chromatograms of the samples are shown in Figure S1.

[1] = system: differentiated Caco-2 cells; test: WST-1 cytotoxicity assay, viability of differentiated Caco-2 cells after 2 h exposure; format: cell-based, Human
Experimental: (§1) Human colon carcinoma cells (Caco-2 cells) were obtained from the American Type Culture Collection (ATCC, Rockville, MD, USA). Caco-2 cells were cultured in complete culture medium, composed of DMEM GlutaMAX with 10% FBS (v/v), 1% P/S (v/v), and 1% NEAA (v/v) at 37 °C in a 5% (v/v) CO2 incubator. In this study, Caco-2 cells within passages 10–15 were utilized.
The WST-1 assay was used to quantify the viability of differentiated Caco-2 cells upon exposure to the individual AGEs and their equimolar mixture. To this end, Caco-2 cells were seeded in 96-well plates at 3 × 10^4 cells/well (100 μL) and incubated at 37 °C under 5% (v/v) CO2 for 20 days. The complete culture medium was refreshed on each alternate day. After full differentiation, the culture medium was removed, and the cells were washed with HBSS (containing 1% (v/v) HEPES) twice on the testing day. The same volume (100 μL) of HBSS containing a series of concentrations of the different individual test compounds or of a mixture containing all 10 AGEs was added from a 20-times-concentrated stock solution in HBSS. The test concentrations were designed based on the estimated daily intake of total AGEs (0.55–0.66 mg/(kg·day)) and high-exposure scenarios (1.4–1.8 mg/(kg day)). […] After exposure for 2 h, the absorbance at 440 and 620 nm was measured in a plate spectrophotometer (Molecular Devices, San Jose, CA, USA, Spectra Max M2). After measurement, the cell viability was calculated as cell viability (%)=(Atested 440 nm−Atested 620 nm)/(Acontrol 440 nm−Acontrol 620 nm)×100

PepT1 = test: Transport of AGE mixture across Caco-2 cell layer (transwell, apical to basolateral); format: in vitro ADME, Human; conditions: human, mixture, each AGE 100 μmol/L; for recovery at 2 h, 100 μmol/L: Caco-2, with Gly-Sar 10 mmol/L (apical compartment), Gly-Sar 10 mmol/L, read-out: percentage of the amount added at the apical side at t = 0: recovery; for Papp at 120 min, 100 μmol/L: Caco-2, with Gly-Sar 10 mmol/L (apical), 10 mmol/L Gly-Sar apical (PepT1 inhibition), data from 120 min
Experimental: as §1
(§2) Caco-2 cells were cultured until reaching 50%–60% confluence (undifferentiated Caco-2 cells), followed by trypsinization. Then, cells were seeded at 3 × 10^4 cells per insert in 100 μL of complete culture medium into the transwell inserts of a 24-well transwell plate, and 600 μL of complete culture medium was added to the basolateral compartments. In both the apical and basolateral compartments, the medium was renewed every other day. After 2 weeks, the transepithelial electrical resistance (TEER) value was measured using a Millicell ERS-2 Electrical Resistance System (Burlington, MA, USA) every other day. Only wells with a TEER value of >400 Ω/cm^2 were used for transport experiments. Moreover, the TEER value was measured before and after the transport experiment to ascertain that the Caco-2 cell layer remained intact during the whole transport experiment.
(§3) Transport experiments were performed after 20 days of differentiation of the Caco-2 cells. The culture medium was replaced with HBSS (containing 1% (v/v) HEPES) 30 min prior to testing in both the apical and basolateral compartments. After the 30 min preincubation, 100 μL of HBSS containing a mixture of the 10 different AGEs including CML, CEL, GALA, argpyrimidine, MG-H1, GOLD, GOLA, MOLD, pentosidine, and pyrraline, each at 100 μmol/L, was added to the apical compartment after removing the preincubation medium, while the basolateral medium was replaced by 600 μL of HBSS. […] At 120 min, a 10 μL sample from the apical side was taken for calculating apical side retention (nontransported percentage).
(§4) The apparent permeability coefficient (Papp) value was calculated according to the methodology described by Yee.
(§5) AGEs were quantified by LC-MS using a Shimadzu Nexera XR LC-40D XR UPLC system (Kyoto, Japan) equipped with a UPLC Amide column (100 mm × 2.1 mm, 1.7 μm) without derivatization coupled with a Shimadzu LCMS-8045 triple quadrupole mass spectrometer (Kyoto, Japan). The analytical column was maintained at 40 °C throughout the quantification process. A multistep binary gradient system of water containing 0.1% (v/v) formic acid (solvent A) and acetonitrile containing 0.1% (v/v) formic acid (solvent B) was used. In the whole gradient program, the total proportion of solvents A and B is always equal to 100%. The gradient program was designed as follows: 75% solvent B to 12.5% solvent B from 0 to 10 min, followed by 12.5% solvent B from 10 to 11 min. […] The initial flow rate was set to 0.30 mL/min. Subsequently, it was reduced to 0.25 mL/min at 0.3 min, which was kept until 10 min. Afterward, there was a gradual decrease, reaching 0.15 mL/min at 11 min, and this rate was maintained until 12 min. […] Between 1 and 11 min of gradient running, the line was set to MS, and for the other time periods, the line was set to waste. The retention time and mass spectrometry parameters of individual AGEs are listed in Table S1 and the chromatograms of the samples are shown in Figure S1.

[2] = as above; format: in vitro ADME, Human; conditions: human; for recovery at 2 h, 100 μmol/L: read-out: percentage of the amount added at the apical side at t = 0: recovery; for Papp at 120 min, 100 μmol/L: data from 120 min
Experimental: as §1, §2, §3, §4, §5

Caco-2 cell layer = test: as above; format: in vitro ADME, Human; conditions: mixture, each AGE 100 μmol/L, 2 h
Experimental: as §1, §2, §3, §4, §5

[3] = Caco-2, 4 °C, mixture, each AGE 100 μmol/L
[4] = Caco-2, cytochalasin D pretreatment, mixture, each AGE 100 μmol/L
[5] = Caco-2, standard treatment (37 °C), equimolar mixture of 10 AGEs, each 100 μmol/L apical
[6] = Caco-2, standard treatment, mixture, each AGE 100 μmol/L
[7] = Caco-2, cytochalasin D 1 μg/mL, 30 min apical preincubation, mixture, each AGE 100 μmol/L

Q: For N[C@@H](CCCC[n+]1cccc2[nH]c(NCCC[C@H](N)C(=O)O)nc21)C(=O)O [pentosidine], which “percentage of the amount added at the apical side at t = 0: accumulation” value (Caco-2 cell monolayer; 4 °C) is on record?
A: The value was 0.0 ± 0.0 ^a %.

Q: And the “percentage of the amount added at the apical side at t = 0: accumulation” value (Caco-2 cell monolayer; Gly-Sar 10 mmol/L)?
A: The value was 0.0 ± 0.0 ^a %.

Q: And the “percentage of the amount added at the apical side at t = 0: accumulation” value (Caco-2 cell monolayer; cytochalasin D pretreatment)?
A: The value was 0.0 ± 0.0 ^a %.

Q: And the “concentration that did not significantly affect cell viability” value ([1]; for the mixture: concentration of each AGE)?
A: Its value is no more than 500 µM.

Q: What about the recovery at 2 h, 100 μmol/L (PepT1) of the same compound?
A: Its recovery at 2 h, 100 μmol/L is 93 ± 10.5%.

Q: What about the Papp at 120 min, 100 μmol/L (PepT1) of the same compound?
A: The Papp at 120 min, 100 μmol/L was 0.061 ×10⁻⁶ cm/s.

Q: What about the recovery at 2 h, 100 μmol/L [2, 3] of the same compound?
A: The recovery at 2 h, 100 μmol/L was 83.3 ± 6.6%.

Q: What about the Papp at 120 min, 100 μmol/L [2, 3] of the same compound?
A: Its Papp at 120 min, 100 μmol/L is 0.054 ×10⁻⁶ cm/s.

Q: What about the recovery at 2 h, 100 μmol/L [2, 4] of the same compound?
A: The recovery at 2 h, 100 μmol/L was 92.6 ± 14.5%.

Q: And the Papp at 120 min, 100 μmol/L [2, 5]?
A: The Papp at 120 min, 100 μmol/L was 0.083 ×10⁻⁶ cm/s.

Q: And the recovery at 2 h, 100 μmol/L [2, 6]?
A: The recovery at 2 h, 100 μmol/L was 96.9 ± 12.3%.

Q: What about the Papp at 120 min, 100 μmol/L [2, 7] of the same compound?
A: Its Papp at 120 min, 100 μmol/L is 0.278 ×10⁻⁶ cm/s.

Q: What about the “percentage of the amount added at the apical side at t = 0: apical side” value (Caco-2 cell layer; 4 °C) of the same compound?
A: The value was 83.2 ± 6.7 ^a %.

Q: What about the “percentage of the amount added at the apical side at t = 0: basolateral side” value (Caco-2 cell layer; 4 °C) of the same compound?
A: The value was 0.1 ± 0.1 ^b %.

Q: And the “percentage of the amount added at the apical side at t = 0: apical side” value (Caco-2 cell layer; Gly-Sar 10 mmol/L)?
A: Its value is 92.8 ± 10.4 ^a %.

Q: What about the “percentage of the amount added at the apical side at t = 0: basolateral side” value (Caco-2 cell layer; Gly-Sar 10 mmol/L) of the same compound?
A: The value was 0.1 ± 0.1 ^b %.

Q: And the “percentage of the amount added at the apical side at t = 0: apical side” value (Caco-2 cell layer; cytochalasin D pretreatment)?
A: The value was 95.0 ± 14.2 ^a %.

Q: What about the “percentage of the amount added at the apical side at t = 0: basolateral side” value (Caco-2 cell layer; cytochalasin D pretreatment) of the same compound?
A: Its value is 0.7 ± 0.4 ^a %.

Q: And the “percentage of the amount added at the apical side at t = 0: apical side (nontransported)” value (Caco-2 cell layer; standard treatment)?
A: The value was 89.1 ± 12.2 ^a %.

Q: Which “percentage of the amount added at the apical side at t = 0: accumulation” value (Caco-2 cell monolayer; 4 °C) does the source give for N[C@@H](CCCCn1c(C=O)ccc1CO)C(=O)O [pyrraline] here?
A: Its value is 0.0 ± 0.0 ^b %.

Q: And the “percentage of the amount added at the apical side at t = 0: accumulation” value (Caco-2 cell monolayer; Gly-Sar 10 mmol/L)?
A: The value was 0.1 ± 0.0 ^a %.

Q: And the “percentage of the amount added at the apical side at t = 0: accumulation” value (Caco-2 cell monolayer; cytochalasin D pretreatment)?
A: Its value is 0.2 ± 0.1 ^a %.

Q: And the “percentage of the amount added at the apical side at t = 0: accumulation (intracellular)” value (Caco-2 cell monolayer; standard treatment)?
A: The value was 0.1 ± 0.1 ^a %.

Q: What about the “effect on cell viability” value [1] of the same compound?
A: The value was “did not affect cell viability up to the highest concentration tested”.

Q: What about the recovery at 2 h, 100 μmol/L (PepT1) of the same compound?
A: Its recovery at 2 h, 100 μmol/L is 86.7 ± 2.8%.

Q: What about the Papp at 120 min, 100 μmol/L (PepT1) of the same compound?
A: The Papp at 120 min, 100 μmol/L was 0.08 ×10⁻⁶ cm/s.

Q: What about the recovery at 2 h, 100 μmol/L [2, 3] of the same compound?
A: Its recovery at 2 h, 100 μmol/L is 87.1 ± 6.1%.

Q: What about the recovery at 2 h, 100 μmol/L [2, 4] of the same compound?
A: Its recovery at 2 h, 100 μmol/L is 90.3 ± 4.9%.

Q: And the Papp at 120 min, 100 μmol/L [2, 5]?
A: Its Papp at 120 min, 100 μmol/L is 0.1 ×10⁻⁶ cm/s.

Q: What about the recovery at 2 h, 100 μmol/L [2, 6] of the same compound?
A: Its recovery at 2 h, 100 μmol/L is 89 ± 5.6%.

Q: And the Papp at 120 min, 100 μmol/L [2, 7]?
A: The Papp at 120 min, 100 μmol/L was 0.334 ×10⁻⁶ cm/s.

Q: And the “percentage of the amount added at the apical side at t = 0: apical side” value (Caco-2 cell layer; 4 °C)?
A: Its value is 86.9 ± 6.0 ^a %.

Q: And the “percentage of the amount added at the apical side at t = 0: basolateral side” value (Caco-2 cell layer; 4 °C)?
A: The value was 0.1 ± 0.1 ^b %.

Q: What about the “percentage of the amount added at the apical side at t = 0: apical side” value (Caco-2 cell layer; Gly-Sar 10 mmol/L) of the same compound?
A: Its value is 86.4 ± 2.8 ^a %.

Q: And the “percentage of the amount added at the apical side at t = 0: basolateral side” value (Caco-2 cell layer; Gly-Sar 10 mmol/L)?
A: Its value is 0.2 ± 0.1 ^b %.

Q: And the “percentage of the amount added at the apical side at t = 0: apical side” value (Caco-2 cell layer; cytochalasin D pretreatment)?
A: The value was 89.4 ± 4.7 ^a %.

Q: What about the “percentage of the amount added at the apical side at t = 0: basolateral side” value (Caco-2 cell layer; cytochalasin D pretreatment) of the same compound?
A: The value was 0.8 ± 0.5 ^a %.

Q: What about the “percentage of the amount added at the apical side at t = 0: apical side (nontransported)” value (Caco-2 cell layer; standard treatment) of the same compound?
A: The value was 88.6 ± 5.5 ^a %.

Q: What about the “percentage of the amount added at the apical side at t = 0: basolateral side (transported)” value (Caco-2 cell layer; standard treatment) of the same compound?
A: The value was 0.2 ± 0.1 ^b %.
